According to patent US7063946B2, “Methods, reagents, kits and apparatus for protein function analysis” (Meso Scale Technologies, LLC., priority 2001, dated 2006):

Legend:
[1] = target: T1, EGFR-pY992 (SEQ ID NO: 5) (Homo sapiens, UniProt P00533); assay: Single-well 4-spot assay for multiple peptide-protein interactions; assay type: binding; details: 4-spot plate
T1 construct: phosphotyrosine at Tyr992 (chemical modification); purchased New England Peptide, Fitchburg Mass; host or cells: chemical synthesis
Description: Four phosphopeptides and their cognate binding proteins (Table 14) were selected for an integrated assay of multiple peptide-protein interaction in 4-spot Multi-Array plates. The IkBa-24pp peptide and its binding protein, βTRCP, are described in Example 10. […] These phosphotyrosine containing peptides are recognized by different adaptor or effecter proteins of the receptor tyrosine kinase signaling pathway.
These four peptides were coupled to BSA carrier protein through cystine residue. After purification on PD-10 gel filtration columns, the peptide-BSA conjugates were then deposited on the assay domains of a 4-spot multi-array IPR plate (i.e., in one of the four exposed regions of working electrode defined by the dielectric layer) with an automated micro-dispensing system (Bio-Dot Dispenser, Bio-Dot, Irvine Calif.). […] These plates are dried then used or stored under desiccated conditions. A few hours prior to usage the plates were rehydrated and blocked with 3% BSA in PBS. […] The in vitro translated and biotin-labeled proteins were then assayed in the 4-spot multi-array IPR plates under conditions described in Example 10.

[2] = tested on: FRK; assay: Kinase inhibitor profiling, pEY phosphorylation; assay type: biochemical
[3] = target: T2, Fert2 (Mus musculus, UniProt P70451); assay: Kinase inhibitor profiling, pEY phosphorylation; assay type: biochemical
T2 construct: specificity data for proteins generated from a library of eighteen full-length clones; host or cells: rabbit reticulocyte lysate, TnT coupled transcription/translation
T2 sequence (P70451 whole entry): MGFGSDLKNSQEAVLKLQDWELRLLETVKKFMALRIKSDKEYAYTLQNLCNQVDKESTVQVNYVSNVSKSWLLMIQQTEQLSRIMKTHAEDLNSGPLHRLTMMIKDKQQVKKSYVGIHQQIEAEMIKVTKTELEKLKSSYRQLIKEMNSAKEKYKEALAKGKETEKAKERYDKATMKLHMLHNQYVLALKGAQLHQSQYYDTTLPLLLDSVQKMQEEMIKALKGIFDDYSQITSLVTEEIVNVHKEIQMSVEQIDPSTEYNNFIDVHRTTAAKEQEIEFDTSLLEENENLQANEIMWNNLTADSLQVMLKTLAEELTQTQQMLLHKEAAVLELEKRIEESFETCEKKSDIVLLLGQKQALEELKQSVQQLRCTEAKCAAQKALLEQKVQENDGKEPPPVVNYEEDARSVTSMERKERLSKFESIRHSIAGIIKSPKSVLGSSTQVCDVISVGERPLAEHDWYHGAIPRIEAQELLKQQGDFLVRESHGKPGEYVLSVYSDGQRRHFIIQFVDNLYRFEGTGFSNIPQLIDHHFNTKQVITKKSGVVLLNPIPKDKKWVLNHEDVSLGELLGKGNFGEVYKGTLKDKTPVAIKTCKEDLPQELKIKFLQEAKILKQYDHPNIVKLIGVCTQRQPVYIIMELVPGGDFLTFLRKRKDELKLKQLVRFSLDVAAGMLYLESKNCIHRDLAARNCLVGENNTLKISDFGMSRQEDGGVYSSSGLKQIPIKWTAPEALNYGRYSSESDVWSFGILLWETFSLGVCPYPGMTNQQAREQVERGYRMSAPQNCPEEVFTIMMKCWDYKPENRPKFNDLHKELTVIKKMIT

ECL signal, spot 4 EGFR-pY992 [1]	Compound	Inhibition specificity towards pEY phosphorylation at 10X IC50, FRK [2]	Inhibition specificity towards pEY phosphorylation at 10X IC50, Fert2 [3]
498	3872466: IMAGE clone protein: mCBP [compound 3872466]	–	–
–	COc1c(C=O)c(O)cc2c1C(=O)c1ccccc1C2=O [Damnacanthal]	H (high inhibition (“H”=less than 25% of the activity remaining))	L (low inhibition (“L”=between 50–75% of the activity remaining))
